Source: publication doi:10.64898/2025.12.05.692609v2, “Early intervention with a PACAP lactoside following repetitive mild traumatic brain injury prevents persistent LHb hyperactivity and motivational deficits in male mice” (bioRxiv, 2025)
Read-outs that look alike come from different tables or passages of the source. Where a SMILES comes first, the peptide text is derived from it. [ ]: non-standard residue; d: D form. The star is where a group is joined. X1 = OC[C@H]1O[C@@H](O[C@H]2[C@H](O)[C@@H](O)[C@H](*)O[C@@H]2CO)[C@H](O)[C@@H](O)[C@H]1O; Nle = CCCC[C@H](N)C(=O)O

How the values were obtained:
in vivo = settings: C57Bl/6J, mouse, ip, 3 mg/kg
Excerpt: (§1) Mice (PN56-70) were anesthetized with isoflurane (1%) mixed with medical grade oxygen (0.75 L/min). Two incisions were made: a 0.5 cm incision in between the scapulae and a 1-cm ventral neck incision right of midline. The right carotid artery was isolated, ligated cranially with 4-0 silk, and temporarily occluded at the caudal end of the vessel with a micro clamp. A small incision was made into the carotid artery and PE-10 tubing, preflushed with heparin/glycerol (500 IU/ml, 50:50) and connected to a 28-gauge PinPort^TM (PNP3F28; Instech, Plymouth Meeting, PA), was advanced toward the heart. The clamp was released, the caudal ligature secured the catheter, and the catheter was tunneled subcutaneously to the scapular incision. Both incisions were closed with staples. The mouse was immediately transferred to a stereotaxic frame to implant the microdialysis probe.
(§2) A midsagittal skull incision was followed by a craniotomy (AP +0.5 mm, ML +2.0 mm from bregma). The dura was removed and a microdialysis probe (CMA12, 8309664, 4 mm membrane, 100 kDa cutoff; HBio, Holliston, MA) was inserted into the striatum (DV −5.0 mm).
(§3) Microdialysis probes were primed with artificial cerebrospinal fluid aCSF (15 mM Tris HCl, 10 mM Tris base, 126 mM NaCl, 2.5 KCl, 1.2 mM NaH2PO4, 2mM Na2SO4, and adjusted pH to 7.4) containing 0.05% bovine serum albumin (BSA) at a rate of 1 μL/minute using a two channel dual syringe pump (Fusion 101A Syringe Pump; Chemyx, Stafford, TX) for one-hour and then placed into the striatum at the coordinates listed above for 30-minutes prior to collecting baseline dialysate. Using the other pump channel, the preservation solution containing 150 ng/mL DADLE ([D-Ala2, D-Leu5]-Enkephalin; 10% acetic acid in 0.05% BSA in aCSF as an internal standard) is combined with the dialysate immediately via a micro-Tee at a flow rate of 1 μL/min (Figure 2A.). […] Dialysate was collected at −10, +10, +20, +30, +40, +50, and +60 minutes. Blood was collected at −5, +1, +5, +15, +25, +35, +45, and +55 minutes to correspond to the midpoint of the dialysate fraction. To separate plasma from whole blood, each sample was collected in ethylenediamine tetraacetic acid capillary tubes (CT-CB300-K2EDTA; Sarstedt, Nümbrecht, Germany), inverted repeatedly for 30 seconds, and centrifuged for 5 minutes at 2,500 x g in a refrigerated centrifuge (Galaxy Mini Centrifuge; VWR, Radnor, PA).
(§4) Biological sample preparation: Plasma samples (20 µL) were mixed with 20 µL of an internal standard working solution containing 150 ng/mL (DADLE) in 10% acetic acid. To precipitate proteins in both plasma and dialysate, 120 µL of ice-cold methanol was added to the plasma mixture and the dialysate samples (20 µL, premixed with preservation solution). After vortexing for 30 seconds, samples were centrifuged at 8,000 x g for 10-minutes at 4°C. The supernatant was evaporated using a Savant Speedvac concentrator. Dialysate and plasma samples were reconstituted in 20 μL of diluent (5% methanol and 0.1% formic acid in nanopure water).
(§5) Liquid chromatography and mass spectrometry: Samples were injected into the Thermo Fisher Scientific UHPLC-MS/MS TSQ system. Separation was achieved on an ACQUITY UPLC HSS T3 C18 Column (100 Å, 1.8 µm, 2.1 × 100 mm) and VanGuard pre-column (HSS T3 1.8 μm, 2.1 × 5 mm) and a HyperSep Retain PEP trap column (2.1 × 10 mm) with the column temperature set at 40 °C. We used a water-acetonitrile gradient with a flow rate of 0.2 mL/min and a total run time of 25. The mobile phases used were A: 0.1% v/v formic acid in deionized water and B: 0.1% v/v formic acid in acetonitrile, with the following conditions: 0 to 1 min (2 %B diverted to waste), 1.0 to 1.2 min (5% B), 1.2 min to 6 min (15% B), 6 min to 11 min (30% B), 11 min to 12.5 min (95% B), 12.5 min to 18 min (95% B), 18 min to 18.5 min (5 %B) 18.5 min to 23.5 min (5% B), 23.5 min to 25 min (2 %B). Injection volumes of 10 µL for dialysate and 5 µL for the plasma sample were used.

LHb neurons = assay: LHb neuronal excitability, intrinsic properties, rebound bursting, Ih and M-currents in slices after in vivo treatment; design: species or system male C57BL/6 mice; settings: for effect on mTBI-induced LHb hyperexcitability (APs on depolarization): vs mTBI+vehicle P<0.0001, 2-way ANOVA
[1] = tested on: male C57BL/6 mice, repetitive closed-head mTBI
[2] = Time-locked brain microdialysis and blood sampling pharmacokinetics; settings: for Brain Dialysate: AUC / Brain Dialysate: Cmax / Brain Dialysate: Tmax: 3 mg/kg IP, striatal microdialysis 0-60 min; for Brain Dialysate: AUC: TES2300 and TES2320 co-injected, estimated concentration by probe recovery; for Brain Dialysate: AUC / Brain Dialysate: Cmax: LC-MS/MS, mean ± SEM; for Brain Dialysate: Cmax: estimated by probe recovery
Excerpt: as §1, §2, §3, §4, §5

human PAC1 receptor = target: T1, human PAC1 receptor (Homo sapiens, UniProt P41586); assay: biochemical
T1 sequence (P41586 21-468): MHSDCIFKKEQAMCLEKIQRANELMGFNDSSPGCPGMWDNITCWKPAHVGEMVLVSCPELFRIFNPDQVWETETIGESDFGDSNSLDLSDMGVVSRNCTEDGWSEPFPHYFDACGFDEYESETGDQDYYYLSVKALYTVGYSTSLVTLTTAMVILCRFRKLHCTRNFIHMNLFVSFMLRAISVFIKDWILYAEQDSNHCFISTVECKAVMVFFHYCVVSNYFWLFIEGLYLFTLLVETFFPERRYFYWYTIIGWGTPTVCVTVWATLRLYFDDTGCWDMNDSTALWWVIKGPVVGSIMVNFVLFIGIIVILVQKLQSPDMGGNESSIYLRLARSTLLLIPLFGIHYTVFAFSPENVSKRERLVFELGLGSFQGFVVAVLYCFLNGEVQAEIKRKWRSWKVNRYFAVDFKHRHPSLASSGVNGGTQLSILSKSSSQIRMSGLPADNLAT
Excerpt: Plasmon Waveguide Resonance (PWR) spectroscopy, an enhanced technology related to Surface Plasmon Resonance (SPR) is capable of monitoring molecular anisotropy and measuring mass and structural changes in real time along with molecular interactions with receptor in the lipid bilayer. PWR was utilized to quantify label-free ligand binding affinities. Intact cell membranes containing human PAC1 receptors (purified and isolated from CHO cells, as described below) were immobilized onto the silica surface of a PWR prism element.
The prism was integrated into a PWR spectrometer system (Mainline Scientific, Malvern, PA). […] Binding events, along with any associated conformational shifts in the receptor or lipid matrix, were directly monitored via the angular resonance shifts of parallel (p-polarized) and perpendicular (s-polarized) light.

[3] = PWR membrane partitioning into receptor-free egg phosphatidylcholine membranes; format: physicochemical
VPAC1 receptors = settings: cited from earlier work
[4] = early intervention, 10 mg/kg i.p. x5
[5] = late intervention, single 10 mg/kg i.p.
[6] = C57Bl/6J mice, 3 mg/kg IP each, co-injected, 0-60 min, n=4, ratio paired t-test
[7] = C57Bl/6J mice, co-injected, n=4, SEM
[8] = C57Bl/6J mice, co-injected, n=4
[9] = C57Bl/6J, mouse, plasma, ip, 3 mg/kg, SEM

## CCCC[C@H](NC(=O)[C@H](CCC(N)=O)NC(=O)[C@H](CCCCN)NC(=O)[C@H](CCCNC(=N)N)NC(=O)[C@H](Cc1ccc(O)cc1)NC(=O)[C@H](CCCNC(=N)N)NC(=O)[C@H](CO)NC(=O)[C@H](Cc1ccc(O)cc1)NC(=O)[C@H](CO)NC(=O)[C@H](CC(=O)O)NC(=O)[C@@H](NC(=O)[C@H](Cc1ccccc1)NC(=O)[C@@H](NC(=O)CNC(=O)[C@H](CC(=O)O)NC(=O)[C@H](CO)NC(=O)[C@@H](N)Cc1c[nH]cn1)[C@@H](C)CC)[C@@H](C)O)C(=O)N[C@@H](C)C(=O)N[C@H](C(=O)N[C@@H](CCCCN)C(=O)N[C@@H](CCCCN)C(=O)N[C@@H](Cc1ccc(O)cc1)C(=O)N[C@@H](CC(C)C)C(=O)N[C@@H](CO[C@@H]1O[C@H](CO)[C@@H](O[C@@H]2O[C@H](CO)[C@H](O)[C@H](O)[C@H]2O)[C@H](O)[C@H]1O)C(N)=O)C(C)C [TES2320] (H-HSDGIFTDSYSRYRKQ[Nle]AVKKYLS(X1)-NH2; N-terminus assumed)
In vivo
  Tmax: 10 min
In vivo; SEM
  AUC(0-t): 101 ng·h/mL
  Cmax: 313 ± 62 ng/mL
  half-life: 13 ± 6 min
LHb neurons; [4]
  effect on mTBI-enhanced Ih currents in LHb neurons: insufficient to prevent this Ih enhancement
  effect on mTBI-reduced M-currents in LHb neurons: Neither early nor late TES2320 intervention in mTBI mice normalized this reduction
LHb neurons; early intervention, 10 mg/kg i.p. x5, n=85 cells/13 mice
  effect on mTBI-induced LHb hyperexcitability (APs on depolarization): normalized this hyperexcitability to sham levels
LHb neurons; early intervention, 10 mg/kg i.p. x5, vs mTBI+vehicle p<0.01, 2-way ANOVA
  effect on mTBI-induced hyperpolarization-induced rebound bursting: normalize this mTBI-induced increase in rebound bursting
LHb neurons; [5]
  effect on mTBI-induced hyperpolarization-induced rebound bursting: no effect
  effect on mTBI-reduced M-currents in LHb neurons: Neither early nor late TES2320 intervention in mTBI mice normalized this reduction
LHb neurons; late intervention, single 10 mg/kg i.p., n=31 cells/5 mice
  effect on mTBI-induced LHb hyperexcitability (APs on depolarization): normalized this hyperexcitability to sham levels
LHb neurons; late intervention, single 10 mg/kg i.p., vs mTBI+vehicle p<0.05, one-way ANOVA
  fast afterhyperpolarization (fAHP) amplitude of LHb neurons: significantly diminished
LHb neurons; late intervention, single 10 mg/kg i.p., vs sham+vehicle p<0.0001
  effect on mTBI-enhanced Ih currents in LHb neurons: exaggerated this effect
[1]; early intervention, 10 mg/kg i.p. x5, n=12
  total grooming time, sucrose splash test: no effect
[1]; early intervention, 10 mg/kg i.p. x5, n=12, vs mTBI+vehicle p<0.05, one-way ANOVA
  latency to groom, sucrose splash test: effective in preventing the prolonged grooming latency
[1]; late intervention, single 10 mg/kg i.p., n=11, vs sham or early TES2320 p<0.01
  latency to groom, sucrose splash test: continued to exhibit increased grooming latency
[1]; mouse, in vivo, ip, 10 mg/kg
  total grooming time, sucrose splash test: significantly decreased the total grooming time
[2]; [6]
  fold increase of AUC over TES2300 in the CSF (brain dialysate): 1.43 fold
  fold increase of AUC over TES2300 in the plasma: 4.73 fold
[2]; C57Bl/6J mice, n=4, SEM
  Brain Dialysate: AUC: 1071 ± 574 ng·min/mL
[2]; [7]
  Brain Dialysate: Cmax: 74 ± 22 ng/mL
[2]; [8]
  Brain Dialysate: Tmax: 8 min
Human PAC1 receptor
  Kd: 4.5 pM
[3]; PWR, receptor-free egg phosphatidylcholine (eggPC) control membranes, read-out: Kd, baseline membrane partitioning affinity
  Kd: 1.35 nM
VPAC1 receptors
  functional potency at VPAC1 receptors: picomolar functional potency

## CCCC[C@H](NC(=O)[C@H](CCC(N)=O)NC(=O)[C@H](CCCCN)NC(=O)[C@H](CCCNC(=N)N)NC(=O)[C@H](Cc1ccc(O)cc1)NC(=O)[C@H](CCCNC(=N)N)NC(=O)[C@H](CO)NC(=O)[C@H](Cc1ccc(O)cc1)NC(=O)[C@H](CO)NC(=O)[C@H](CC(=O)O)NC(=O)[C@@H](NC(=O)[C@H](Cc1ccccc1)NC(=O)[C@@H](NC(=O)CNC(=O)[C@H](CC(=O)O)NC(=O)[C@H](CO)NC(=O)[C@@H](N)Cc1c[nH]cn1)[C@@H](C)CC)[C@@H](C)O)C(=O)N[C@@H](C)C(=O)N[C@H](C(=O)N[C@@H](CCCCN)C(=O)N[C@@H](CCCCN)C(=O)N[C@@H](Cc1ccc(O)cc1)C(=O)N[C@@H](CC(C)C)C(=O)N[C@@H](CO)C(N)=O)C(C)C [TES2300] (H-HSDGIFTDSYSRYRKQ[Nle]AVKKYLS-NH2; N-terminus assumed)
[2]; C57Bl/6J mice, n=4, SEM
  Brain Dialysate: AUC: 703 ± 338 ng·min/mL
[2]; [7]
  Brain Dialysate: Cmax: 64 ± 21 ng/mL
[2]; [8]
  Brain Dialysate: Tmax: 8 min
[2]; C57Bl/6J, mouse, brain dialysate / plasma, ip, 3 mg/kg
  Kp: 0.513
[2]; C57Bl/6J, mouse, plasma, ip, 3 mg/kg
  Tmax: 4 min
[2]; [9]
  AUC(0-t): 22.8 ng·h/mL
  Cmax: 106 ± 25 ng/mL
  half-life: 8 ± 4 min
[3]; PWR, PC bilayers, unglycosylated variant vs TES2320
  affinity for PC bilayers relative to TES2320: ten fold higher affinity
[3]; as quoted in the pharmacokinetics section, membrane not specified, read-out: Kd, affinity for the membrane
  Kd: 0.114 nM
